Experimental data taken from patent US8987324B2, “Use of simalikalactone E as an anticancer agent” (Institut de Recherche pour le Developpement, priority 2011, dated 2015).
Read-outs that look alike come from different tables or passages of the source.

What was measured:
[1] = tested on: Rafl-dependent Erk1/2 (MAP kinase) phosphorylation; test: Rafl-dependent Erk1/2 phosphorylation in inducible HEK-Rafl-ER cells; assay type: cell-based; conditions: 30 minutes preincubation, then 1 μM tamoxifen for 1 hour
Procedure: In the experiment presented in FIG. 6B, inducible HEK-Rafl-ER cells were used. These cells express the Raf kinase under the control of the estrogen receptor. The expression of Raf can therefore be induced in the presence of tamoxifen. The cells are preincubated for 30 minutes with increasing doses of Simalikalactone E or U0126, and then treated with 1 μM of tamoxifen for 1 hour. The cells are then lyzed and protein extracts are prepared for western blot analysis. The membranes are finally incubated in the presence of the various antibodies (p-Erk1/2, Erk1/2 and HSP60). Simalikalactone E and U0126 inhibit Rafl-dependent Erk1/2 (MAP kinase) phosphorylation.

[2] = tested on: Plasmodium vinckei petteri; conditions: murine model of malaria, cited from earlier work
[3] = tested on: K562-Ima-S leukemia cell line; test: XTT cell viability, K562-Ima-S; assay type: cell-based; conditions: 48 hours
Procedure: (§1) B1-1. XTT Cell Viability Measurement
(§2) This test measures the activity of mitochondrial succinate dehydrogenase, which represents an index of cell viability. This enzyme converts XTT into orange formazan. On day 0, the K562-Ima-S (sensitive to Ima), K562-Ima-R (resistant to Ima), A375 or MeWo cells are seeded at 15 000 cells/well (100 μl) in 96-well microplates and stimulated with increasing concentrations of Simalikalactone E [50-500 nM]. After 24 or 48 hours, 50 μl of tetrazolium (XTT reagent) are added to each well and the optical density at 490 nm is read every 30 minutes for 2 to 4 hours. The values obtained, which are an index of mitochondrial metabolism, make it possible to evaluate the percentage of live cells. Each condition is systematically carried out in triplicate.
(§3) The K562-Ima-S and K562-Ima-R tumor lines are incubated for 48 hours with increasing concentrations of Simalikalactone E (0, 100 or 250 nM) in the absence or in the presence of a maximally effective concentration (50 μM) of z-Vad-fmk (Zvad), which is a pan-caspase inhibitor (apoptosis inhibitor).

[4] = tested on: K562-Ima-R leukemia cell line; test: XTT cell viability, K562-Ima-R; assay type: cell-based; conditions: 48 hours
Procedure: as §1, §2, §3

A375 melanoma cells = test: XTT cell viability, A375 melanoma cells; assay type: cell-based; conditions: 48 hours; A375 carry B-raf V600E, MeWo do not
Procedure: as §1, §2
A375 and MeWo melanoma cells are then treated in the presence of increasing doses of Simalikalactone E. 48 hours later, the cells are subjected to an XTT test. The A375 cells carry the V600E mutation on the B-raf oncogene, which is reflected by constitutive activation of the Erk pathway.

K562 cells = test: Clonogenic capacity of K562 cells; assay type: cell-based; conditions: SkE 100, 250 or 500 nM versus 1 μM imatinib, 7 to 10 days
Procedure: B1-2. Evaluation of the Clonogenic Capacity of K562 Cells
Aliquots of methylcellulose (40% Methocult®, 1% L-glutamine, 5% FCS (fetal calf serum) and 54% IMDM (Iscove's modified Dulbecco's medium)) are heated for 1 h at 37° C. 400 μl of RPMI (Roswell Park Memorial Institute medium), 5% of FCS containing the treatment (1 μM imatinib, 100, 250 or 500 nM SkE), and then 10^3 K562 cells in 200 μl of medium are added to each aliquot. For each condition, 500 μl of the suspension obtained are then deposited in 3 wells of a 24-well plate. A nontreated condition serves as a control. The plates are incubated at 37° C. for 7 to 10 days. 75 μl of MTT tetrazolium salt (Roche) (2.5 mg/ml) are added to each well. The MTT tetrazolium salt is cleaved into purple-colored formazan crystals by the metabolically active cells. After incubation for 4 h at 37° C., the wells are photographed and the clones are quantified using the Image J program.

[5] = tested on: CD34+ Bcr-Abl+ primary cells from patients suffering from CML; test: XTT viability of CD34+ human primary cells from CML patients; assay type: cell-based; conditions: 48 hours
Procedure: The primary cells from patients suffering from CML (purified CD34+Bcr-Abl+) are incubated in the presence of variable concentrations of Simalikalactone E for 48 hours, and then the cell viability is quantified using an XTT colorimetric test. Imatinib (Ima) is used as a positive control for the induction of death of the Bcr-Abl+ cells.

[6] = tested on: Erk1/2 kinase (MAP kinase) phosphorylation; test: Western blot of death markers and Erk1/2 phosphorylation, K562-Ima-S; assay type: cell-based
Procedure: (§4) The characterization of the type of cell death involved in the effect of Simalikalactone E is carried out according to the following protocols: • apoptosis (type I cell death) is studied by assaying caspase activity, caspases being cysteine proteases involved in this type of process. The apoptosis is also quantified by annexin V/propidium iodide co-labeling, the cells which externalize the annexin V at the level of their […] being cells undergoing apoptosis, • autophagic death (type II cell death) is analyzed by assaying cathepsin activity, these proteases being, for their part, involved in the degradation of the intracellular material included in vesicles (autophagolysosomes). […] B1-4. Xenografts of K562-Luc Cells on Nude Mice
(§5) The K562-Ima-S (A) and K562-Ima-R (B) cells are treated for variable periods of time with 250 nM of Simalikalactone E. The cells are then lyzed and protein extracts are prepared for western blot analysis. Finally, the membranes are incubated in the presence of the various anti-PARP, LC3b, p-Erk1/2, Erk1/2 and HSP60 antibodies.
K562-Ima-S cells are then treated for 1 hour in the presence of 250 nM of Simalikalactone E or 10 μM of U0126 (specific inhibitor of MEK1/2, the kinase responsible for Erk1/2 (MAP kinase) phosphorylation and activation). The cells are then lyzed and protein extracts are prepared for western blot analysis. The membranes are then incubated in the presence of the p-Erk1/2, Erk1/2 and HSP60 antibodies.

[7] = tested on: Erk1/2 kinase (MAP kinase) phosphorylation; test: Western blot of death markers and Erk1/2 phosphorylation, K562-Ima-R; assay type: cell-based; conditions: 250 nM
Procedure: as §4, §5

Vero mammalian cells = conditions: cited from earlier work
[8] = tested on: gametocyte forms of Plasmodium falciparum; conditions: compared with primaquine, reference molecule; cited from earlier work
[9] = mice, orally for 4 days; cited from earlier work
certain cell lines = conditions: cited from earlier work

N#CC(=C(/N)Sc1ccccc1N)/C(C#N)=C(\N)Sc1ccccc1N [U0126, reference compound]
Rafl-dependent Erk1/2 (MAP kinase) phosphorylation [1]: inhibit

CCN(CC)CCCC(C)Nc1ccnc2cc(Cl)ccc12 (centres unmarked) [chloroquine, reference compound]
dose inhibiting 50% of the growth of Plasmodium vinckei petteri ([2]; intraperitoneally): 3 mg/kg/day

CCC(C)C(=O)O[C@@H]1[C@H]2C(C)=CC(=O)[C@@H](O)[C@]2(C)[C@H]2[C@@H](O)[C@H](O)[C@@]3(C)OC[C@@]24[C@@H]1OC(=O)[C@H](OC(=O)C(C)CC)[C@@H]34 (some centres unmarked) [Simalikalactone E]
effect on viability in the presence of caspase inhibitor z-Vad-fmk ([3]; 50 μM z-Vad-fmk): not modified | sensitivity (growth and viability) ([3]; 100 or 250 nM): sensitive | effect on viability in the presence of caspase inhibitor z-Vad-fmk ([4]; 50 μM z-Vad-fmk): not modified | sensitivity (growth and viability) ([4]; 100 or 250 nM): sensitive | sensitivity in XTT test compared with MeWo cells (A375 melanoma cells): much more sensitive | inhibition of clonogenic capacity (K562 cells): as effectively as imatinib | inhibition of cell metabolism compared with imatinib ([5]; 500 nM): as effective as imatinib | EC50 ([5]; Homo sapiens, read-out: dose giving the half-maximum effect): 0.1 µM | apoptosis marker (PARP cleavage) ([6]; 250 nM): no cleavage of PARP | autophagy marker (LC3 conversion) ([6]; 250 nM): no modification of LC3 | concentration of U0126 relative to Simalikalactone E for equal effect (times higher) ([6]; 250 nM SkE versus 10 μM U0126): 40 | inhibition of Erk1/2 phosphorylation compared with U0126 ([6]; 250 nM SkE versus 10 μM U0126, 1 hour): as effective as U0126 | Erk1/2 kinase (MAP kinase) phosphorylation ([6]; 250 nM, variable periods of time, imatinib-sensitive cells): inhibits | apoptosis marker (PARP cleavage) [7]: no cleavage of PARP | autophagy marker (LC3 conversion) [7]: no modification of LC3 | Erk1/2 kinase (MAP kinase) phosphorylation ([7]; variable periods of time, imatinib-resistant cells): inhibits | Rafl-dependent Erk1/2 (MAP kinase) phosphorylation [1]: inhibit | selectivity index (Vero mammalian cells; Vero cells versus Plasmodium falciparum): greater than 100 | IC50 (Vero mammalian cells; read-out: dose inhibiting 50% of the growth of Vero mammalian cells): 6.57 µM | concentration reducing the gametocyte level by 50%, relative to primaquine [8]: seven times lower | dose inhibiting 50% of the growth of Plasmodium vinckei petteri ([2]; intraperitoneally): 0.5 mg/kg/day | dose inhibiting 50% of the growth of Plasmodium vinckei petteri ([2]; orally): 1 mg/kg/day | dose tolerated [9]: 1 mg/kg/day | cytotoxic action (certain cell lines): moderate
